Converted amounts (≈) assume the structure as drawn.
How the values were obtained:
[1] = system: E. coli ATCC 25922; assay: MIC determination by microdilution in liquid medium, E. coli ATCC 25922; type: cell-based; conditions: Escherichia coli, ATCC25922
[2] = system: Streptococcus uberis; assay: MIC determination by microdilution in liquid medium, Str ube; type: cell-based
[3] = system: Pseudomonas aeruginosa (r = resistant); assay: MIC determination by microdilution in liquid medium, Pse aer r; type: cell-based; conditions: read-out: MIC Pse aer r
[4] = system: Escherichia coli; assay: MIC determination by microdilution in liquid medium, E coli; type: cell-based
[5] = system: Mannheimia haemolytica (r = resistant); assay: MIC determination by microdilution in liquid medium, Man hae r; type: cell-based; conditions: resistant strain
[6] = system: M. bovirhinis; assay: MIC determination by microdilution in liquid medium, M. bovirhinis; type: cell-based; conditions: Mycoplasma
[7] = system: Staphylococcus aureus (s = susceptible); assay: MIC determination by microdilution in liquid medium, Sta aur s; type: cell-based; conditions: susceptible strain
[8] = system: Staphylococcus aureus (r = resistant); assay: MIC determination by microdilution in liquid medium, Sta aur r; type: cell-based; conditions: read-out: MIC Sta aur r
[9] = system: Clostridium perfringens; assay: microbe, parasite or virus in culture; type: cell-based; conditions: read-out: MIC Clo per
[10] = system: Bordetella bronchiseptica; assay: MIC determination by microdilution in liquid medium, Bor bron; type: cell-based
[11] = system: Pseudomonas aeruginosa (s = susceptible); assay: MIC determination by microdilution in liquid medium, Pse aer s; type: cell-based; conditions: susceptible strain
[12] = system: Mycoplasma bovis; assay: MIC determination by microdilution in liquid medium, Myc bov; type: cell-based; conditions: Mycoplasmopsis bovis
[13] = system: Mannheimia haemolytica (s = susceptible); assay: MIC determination by microdilution in liquid medium, Man hae s; type: cell-based; conditions: susceptible strain
[14] = system: E. faecalis ATCC 29212; assay: MIC determination by microdilution in liquid medium, E. faecalis ATCC 29212; type: cell-based; conditions: Enterococcus faecalis, ATCC29212, read-out: MIC E. fae-calis ATCC 29212

SMILES	melting point	MIC [1]	MIC [2]	MIC [3]	MIC [4]	MIC [5]	MIC [6]	MIC [7]	MIC [8]	MIC [9]	MIC [10]	MIC [11]	MIC [12]	MIC [13]	MIC [14]
CN1COc2c(N3CC[C@H](NC(=O)C(F)(F)F)C3)c(F)cc3c(=O)c(C(=O)O)cn1c23 (hydrate or solvate) [Example 28, 8-Fluoro-3-methyl-6-oxo-9-[(S)-3-(2,2,2-trifluoro-acetylamino)-pyrrolidin-1-yl]-2,3-dihydro-6H-1-oxa-3,3a-diaza-phenalene-5-carboxylic acid]	273 to 275 °C	–	–	–	–	–	–	–	–	–	–	–	–	–	–
CN1COc2c(N3CC[C@@H](NC(=O)C(F)(F)F)C3)c(F)cc3c(=O)c(C(=O)O)cn1c23 (hydrate or solvate) [Example 29, 8-Fluoro-3-methyl-6-oxo-9-[(R)-3-(2,2,2-trifluoro-acetylamino)-pyrrolidin-1-yl]-2,3-dihydro-6H-1-oxa-3,3a-diaza-phenalene-5-carboxylic acid]	273 to 275 °C	–	–	–	–	–	–	–	–	–	–	–	–	–	–
CN1COc2c(N3C[C@@H](N)C(C)(C)C3)c(F)cc3c(=O)c(C(=O)O)cn1c23 (hydrate or solvate) [Example 34, 9-((S)-4-Amino-3,3-dimethyl-pyrrolidin-1-yl)-8-fluoro-3-methyl-6-oxo-2,3-dihydro-6H-1-oxa-3,3a-diaza-phenalene-5-carboxylic acid]	230 °C (dec.)	–	–	–	–	–	–	–	–	–	–	–	–	–	–
CN1COc2c(N3C[C@H](N)C(C)(C)C3)c(F)cc3c(=O)c(C(=O)O)cn1c23 (hydrate or solvate) [Example 35, 9-((R)-4-Amino-3,3-dimethyl-pyrrolidin-1-yl)-8-fluoro-3-methyl-6-oxo-2,3-dihydro-6H-1-oxa-3,3a-diaza-phenalene-5-carboxylic acid]	222 °C (dec.)	–	–	–	–	–	–	–	–	–	–	–	–	–	–
CN1COc2c(N3CCC(C(O)c4nccs4)C3)c(F)cc3c(=O)c(C(=O)O)cn1c23 (stereo not drawn) (hydrate or solvate) [Example 38, 8-Fluoro-9-[3-(hydroxy-thiazol-2-yl-methyl)-pyrrolidin-1-yl]-3-methyl-6-oxo-2,3-dihydro-6H-1-oxa-3,3a-diaza-phenalene-5-carboxylic acid]	215 to 217 °C	–	–	–	–	–	–	–	–	–	–	–	–	–	–
CN1COc2c(N3CCC(C(N)c4nccs4)C3)c(F)cc3c(=O)c(C(=O)O)cn1c23 (stereo not drawn) (hydrate or solvate) [Example 39, 9-[3-(Amino-thiazol-2-yl-methyl)-pyrrolidin-1-yl]-8-fluoro-3-methyl-6-oxo-2,3-dihydro-6H-1-oxa-3,3a-diaza-phenalene-5-carboxylic acid]	233 to 235 °C	–	–	–	–	–	–	–	–	–	–	–	–	–	–
CN1COc2c(N3CC(N)C(C)(C)C3)c(F)cc3c(=O)c(C(=O)O)cn1c23 (racemic) (hydrate or solvate) [Example 33, 9-((R,S)-4-Amino-3,3-dimethyl-pyrrolidin-1-yl)-8-fluoro-3-methyl-6-oxo-2,3-dihydro-6H-1-oxa-3,3a-diaza-phenalene-5-carboxylic acid]	237 °C (dec.)	–	–	–	–	–	–	–	–	–	–	–	–	–	–
CN1COc2c(N3CC(N)C(C)(C)C3)c(F)cc3c(=O)c(C(=O)O)cn1c23 (racemic) [Example 33, 9-((R,S)-4-Amino-3,3-dimethyl-pyrrolidin-1-yl)-8-fluoro-3-methyl-6-oxo-2,3-dihydro-6H-1-oxa-3,3a-diaza-phenalene-5-carboxylic acid]	–	0.03 µg/mL (≈ 0.0797 µM)	0.12 µg/mL (≈ 0.319 µM)	8 µg/mL (≈ 21.3 µM)	0.06 µg/mL (≈ 0.159 µM)	8 µg/mL (≈ 21.3 µM)	0.25 µg/mL (≈ 0.664 µM)	< 0.03 µg/mL	2 µg/mL (≈ 5.31 µM)	0.06 µg/mL (≈ 0.159 µM)	0.5 µg/mL (≈ 1.33 µM)	0.5 µg/mL (≈ 1.33 µM)	0.5 µg/mL (≈ 1.33 µM)	0.06 µg/mL (≈ 0.159 µM)	–
CN1COc2c(N3CCC(CNc4cnccn4)C3)c(F)cc3c(=O)c(C(=O)O)cn1c23 (stereo not drawn) [Example 1, 8-fluoro-3-methyl-6-oxo-9-[3-(pyrazin-2-ylaminomethyl)-pyrrolidin-1-yl]-2,3-dihydro-6H-1-oxa-3,3a-diaza-phenalene-5-carboxylic acid]	–	0.12 µg/mL (≈ 0.272 µM)	< 0.03 µg/mL	16 µg/mL (≈ 36.3 µM)	0.25 µg/mL (≈ 0.568 µM)	16 µg/mL (≈ 36.3 µM)	0.06 µg/mL (≈ 0.136 µM)	< 0.03 µg/mL	0.5 µg/mL (≈ 1.14 µM)	0.06 µg/mL (≈ 0.136 µM)	0.5 µg/mL (≈ 1.14 µM)	8 µg/mL (≈ 18.2 µM)	< 0.03 µg/mL	0.06 µg/mL (≈ 0.136 µM)	≤ 0.03 µg/mL
CN1COc2c(N3CCC(Nc4cnccn4)C3)c(F)cc3c(=O)c(C(=O)O)cn1c23 (stereo not drawn) [Example 7]	–	0.25 µg/mL (≈ 0.586 µM)	0.06 µg/mL (≈ 0.141 µM)	16 µg/mL (≈ 37.5 µM)	0.25 µg/mL (≈ 0.586 µM)	16 µg/mL (≈ 37.5 µM)	0.06 µg/mL (≈ 0.141 µM)	< 0.03 µg/mL	0.5 µg/mL (≈ 1.17 µM)	0.06 µg/mL (≈ 0.141 µM)	0.5 µg/mL (≈ 1.17 µM)	2 µg/mL (≈ 4.69 µM)	< 0.03 µg/mL	0.06 µg/mL (≈ 0.141 µM)	≤ 0.03 µg/mL
CN1COc2c(N3CCC(Nc4ccccn4)C3)c(F)cc3c(=O)c(C(=O)O)cn1c23 (stereo not drawn) [Example 8]	–	0.12 µg/mL (≈ 0.282 µM)	0.25 µg/mL (≈ 0.588 µM)	> 32 µg/mL	0.5 µg/mL (≈ 1.18 µM)	32 µg/mL (≈ 75.2 µM)	0.06 µg/mL (≈ 0.141 µM)	0.06 µg/mL (≈ 0.141 µM)	4 µg/mL (≈ 9.4 µM)	< 0.03 µg/mL	> 1 µg/mL	8 µg/mL (≈ 18.8 µM)	0.06 µg/mL (≈ 0.141 µM)	0.25 µg/mL (≈ 0.588 µM)	0.25 µg/mL (≈ 0.588 µM)
CN1COc2c(N3CCC(Nc4nncs4)C3)c(F)cc3c(=O)c(C(=O)O)cn1c23 (stereo not drawn) [Example 10, 8-Fluoro-3-methyl-6-oxo-9-[3-([1,3,4]thiadiazol-2-ylamino)-pyrrolidin-1-yl]-2,3-dihydro-6H1-oxa-3,3a-diaza-phenalene-5-carboxylic acid]	–	1 µg/mL (≈ 2.31 µM)	< 0.03 µg/mL	> 32 µg/mL	0.25 µg/mL (≈ 0.578 µM)	> 32 µg/mL	2 µg/mL (≈ 4.62 µM)	< 0.03 µg/mL	4 µg/mL (≈ 9.25 µM)	< 0.03 µg/mL	2 µg/mL (≈ 4.62 µM)	4 µg/mL (≈ 9.25 µM)	0.12 µg/mL (≈ 0.277 µM)	0.03 µg/mL (≈ 0.0694 µM)	0.25 µg/mL (≈ 0.578 µM)
CN1COc2c(N3CC[C@H](Nc4nccs4)C3)c(F)cc3c(=O)c(C(=O)O)cn1c23 [Example 18, 8-Fluoro-3-methyl-6-oxo-9-[(S)-3-(thiazol-2-ylamino)-pyrrolidin-1-yl]-2,3dihydro-6H-1-oxa-3,3a-diaza-phenalene-5-carboxylic acid]	–	0.06 µg/mL (≈ 0.139 µM)	0.25 µg/mL (≈ 0.579 µM)	32 µg/mL (≈ 74.2 µM)	0.5 µg/mL (≈ 1.16 µM)	> 32 µg/mL	≤ 0.03 µg/mL	< 0.03 µg/mL	4 µg/mL (≈ 9.27 µM)	0.06 µg/mL (≈ 0.139 µM)	0.25 µg/mL (≈ 0.579 µM)	4 µg/mL (≈ 9.27 µM)	0.25 µg/mL (≈ 0.579 µM)	0.12 µg/mL (≈ 0.278 µM)	≤ 0.03 µg/mL
CN1COc2c(N3CC[C@@H](Nc4nccs4)C3)c(F)cc3c(=O)c(C(=O)O)cn1c23 [Example 19, 8-Fluoro-3-methyl-6-oxo-9-[(R)-3-(thiazol-2-ylamino)-pyrrolidin-1-yl]-2,3-dihydro-6H-1-oxa-3,3a-diaza-phenalene-5-carboxylic acid]	–	0.25 µg/mL (≈ 0.579 µM)	< 0.03 µg/mL	8 µg/mL (≈ 18.5 µM)	0.06 µg/mL (≈ 0.139 µM)	8 µg/mL (≈ 18.5 µM)	0.25 µg/mL (≈ 0.579 µM)	< 0.03 µg/mL	0.25 µg/mL (≈ 0.579 µM)	< 0.03 µg/mL	0.12 µg/mL (≈ 0.278 µM)	2 µg/mL (≈ 4.64 µM)	< 0.03 µg/mL	0.03 µg/mL (≈ 0.0695 µM)	0.06 µg/mL (≈ 0.139 µM)
CN1COc2c(N3CCC(NC(=O)C(F)(F)F)C3)c(F)cc3c(=O)c(C(=O)O)cn1c23 (stereo not drawn) [Example 27, 8-Fluoro-3-methyl-6-oxo-9-[3-(2,2,2-trifluoro-acetylamino)-pyrrolidin-1-yl]-2,3-dihydro-6H-1-oxa-3,3a-diaza-phenalene-5-carboxylic acid]	–	0.03 µg/mL (≈ 0.0675 µM)	0.25 µg/mL (≈ 0.563 µM)	2 µg/mL (≈ 4.5 µM)	0.03 µg/mL (≈ 0.0675 µM)	4 µg/mL (≈ 9 µM)	1 µg/mL (≈ 2.25 µM)	0.12 µg/mL (≈ 0.27 µM)	8 µg/mL (≈ 18 µM)	0.25 µg/mL (≈ 0.563 µM)	2 µg/mL (≈ 4.5 µM)	0.06 µg/mL (≈ 0.135 µM)	1 µg/mL (≈ 2.25 µM)	0.008 µg/mL (≈ 0.018 µM)	2 µg/mL (≈ 4.5 µM)
CN1COc2c(N3CC[C@H](NC(=O)C(F)(F)F)C3)c(F)cc3c(=O)c(C(=O)O)cn1c23 [Example 28, 8-Fluoro-3-methyl-6-oxo-9-[(S)-3-(2,2,2-trifluoro-acetylamino)-pyrrolidin-1-yl]-2,3-dihydro-6H-1-oxa-3,3a-diaza-phenalene-5-carboxylic acid]	–	0.03 µg/mL (≈ 0.0675 µM)	0.25 µg/mL (≈ 0.563 µM)	1 µg/mL (≈ 2.25 µM)	0.03 µg/mL (≈ 0.0675 µM)	4 µg/mL (≈ 9 µM)	–	0.12 µg/mL (≈ 0.27 µM)	4 µg/mL (≈ 9 µM)	0.12 µg/mL (≈ 0.27 µM)	1 µg/mL (≈ 2.25 µM)	0.06 µg/mL (≈ 0.135 µM)	1 µg/mL (≈ 2.25 µM)	0.008 µg/mL (≈ 0.018 µM)	1 to 2 µg/mL (≈ 2.25 to 4.5 µM)
CN1COc2c(N3C[C@H](N)C(C)(C)C3)c(F)cc3c(=O)c(C(=O)O)cn1c23 [Example 35, 9-((R)-4-Amino-3,3-dimethyl-pyrrolidin-1-yl)-8-fluoro-3-methyl-6-oxo-2,3-dihydro-6H-1-oxa-3,3a-diaza-phenalene-5-carboxylic acid]	–	0.03 µg/mL (≈ 0.0797 µM)	0.12 µg/mL (≈ 0.319 µM)	8 µg/mL (≈ 21.3 µM)	0.06 µg/mL (≈ 0.159 µM)	8 µg/mL (≈ 21.3 µM)	–	0.06 µg/mL (≈ 0.159 µM)	2 µg/mL (≈ 5.31 µM)	0.12 µg/mL (≈ 0.319 µM)	1 µg/mL (≈ 2.66 µM)	0.5 µg/mL (≈ 1.33 µM)	0.5 µg/mL (≈ 1.33 µM)	0.06 µg/mL (≈ 0.159 µM)	0.25 µg/mL (≈ 0.664 µM)

Source: patent publication US7713965B2, “7-substituted 3-carboxy-oxadiazino-quinolone derivatives, their preparation and their application as anti-bacterials” (Vetoquinol SA, priority 2008, dated 2010)
